Consider 13 compounds from patent US6670189B2, “Fumonisin detoxification compositions and methods” (priority 1994, dated 2003).

For data set [1], the system named is FB1 Hydrolase activity. Nature of the data set: Effect of various treatments on modification of FB1 by E. spinifera esterase (culture filtrates). Type of data set: biochemical, Exophiala spinifera. Details: key: − = no hydrolysis; ± = trace amount of hydrolysis; + = incomplete hydrolysis; ++ = incomplete hydrolysis; +++ = complete hydrolysis. The settings on record: then incubated with FB1 overnight at 37° C. Here is the method: (§1) Analytical thin-layer chromatography was carried out on 100% silanized C18 silica plates (Sigma #T-7020; 10×10 cm; 0.1 mm thick) by a modification of the published method of Rottinghaus (Rottinghaus, G. E., Coatney, C. E., and Minor, H. C., A rapid, sensitive thin layer chromatography procedure for the detection of fumonisin b-1 and b-2, J Vet Diagn Invest, 4, 326 (1992), and herein incorporated by reference).
(§2) Sample lanes were pre-wet with methanol to facilitate sample application. After application of from 0.1 to 2 μl of aqueous sample, the plates were air-dried and developed in MeOH:4% KCl (3:2) or MeOH:0.2 M KOH (3:2) and then sprayed successively with 0.1 M sodium borate (pH 9.5) and fluorescamine (0.4 mg/ml in acetonitrile). Plates were air-dried and viewed under long wave UV.
The esterase isolated from E. spinifera was then subjected to other treatments, including proteases, to determine whether and how the enzyme would function in various environments.

Data set [2] deals with AP1 catabolase. Nature of the data set: AP1 catabolase activity: modification of amine-containing substrates by crude cell-free extract. Type of data set: biochemical, Exophiala spinifera. The settings on record: for modification by the crude extract (catabolase): cell-free extract of substrate-induced Exophiala spinifera, TLC on C18 silica. The protocol:
A cell-free extract that contains the catabolase activity was obtained by subjecting substrate-induced Exophiala spinifera cells to disruption using a bead beater in sodium acetate buffer, pH 5.2, and recovering the cell-free supernatant by centrifugation and 0.45 micron filtration. Catabolic activity is assayed by incubating extracts with AP1 (hydrolyzed fumonisin B1 backbone) or 14C-labelled AP1 with the extract and evaluating by TLC on C18 silica. The product AP1-N1 has a lower Rf than AP1 and is detected either by radiolabel scan or by H2SO4 spray/charring of the TLC plate. […] Other amine-containing substrates were tested for modification by the crude extract.

Data set [3] has as its system maize tissue cultured cells (Black Mexican Sweet, BMS). As to conditions: for concentration at which growth of BMS cells was inhibited: liquid culture, 96-well plates, 1 week, cell density versus water control.
In data set [4] the test system is maize coleoptiles. Nature of the data set: Effect of FB1 and AP1 on maize coleoptiles. As to conditions: for Injury of maize coleoptiles: 2 days dark at 28° C. then 3 days light. Details: key to Injury of maize coleoptiles: + = brown necrotic discoloration of coleoptile; − = no symptoms (same as water control). Here is the method:
Maize coleoptiles from 4 day dark-grown germinated maize seeds were excised above the growing point and placed in 96-well microtiter plates in the presence of 60 microliters of sterile distilled water containing FB1 or AP1 at approximately equimolar concentrations of 1.5, 0.5, 0.15, 0.05, 0.015, 0.005, 0.0015, or 0.0005 millimolar, along with water controls. After 2 days in the dark at 28° C. the coleoptiles were placed in the light and incubated another 3 days.

Data set [5] deals with Lemna tissues. As to conditions: Vesonder et al. 1992; cited from earlier work.
The subject of data set [6] is tomato. As to conditions: Lamprecht et al. 1994; cited from earlier work.
Data set [7] deals with maize callus. As to conditions: solid medium; Van Asch et al. 1992; cited from earlier work.
The nature of data set [8]: Hydrolysis of fumonisin B1 by commercial esterases and hydrolases. Also noted: key: − = no hydrolysis; ± = trace amount of hydrolysis; + = incomplete hydrolysis; ++ = incomplete hydrolysis; +++ = complete hydrolysis. Type of data set: biochemical. The settings on record: assay pH 8.0; overnight at 37° C. with 1 mg/ml fumonisin. Here is the method:
as §1, §2
The fumonisin esterase isolated from E. spinifera and R. atrovirens was compared with other known esterases from various sources as supplied by commercial vendors.

Setting [9] is: treatment 0.01 mg/ml, 16 hr, 37° C., pH 5.2.

`O[C@@H](CS)[C@@H](O)CS` [DTT]: in data set [1] (treatment 25 mM), the “FB1 Hydrolase activity” value is “+++”.
In the case of Trypsin, the “FB1 Hydrolase activity” value in data set [1] (setting [9]) is recorded as “+++”.
As to `[Mg+2]` [Mg^++], the “FB1 Hydrolase activity” value in data set [1] (treatment 50 mM) is “+++”.
Still for that read-out and setting: for `[Ca+2]` [Ca^++] the value was “+++”.
For `CCCCCCCCCCCCCC[C@@H](O)[C@@H](O)[C@@H](N)CO` [Phytosphingosine], in data set [2], the “modification by the crude extract (catabolase)” value (from here on “modification”) was “apparently not modified”.
On to Chymotrypsin, for which the “FB1 Hydrolase activity” value in data set [1] (setting [9]) was “++”.
`CCCCCCCCCCCCCCC[C@@H](O)[C@@H](N)CO` [sphinganine]: the “modification” value in data set [2] is reported as “apparently not modified”.
Regarding `CCCC[C@@H](C)[C@@H](O)[C@@H](O)C[C@@H](C)C[C@H](O)CCCC[C@@H](O)C[C@H](O)[C@H](C)N` [AP1], in data set [3], the “difference in toxicity (FB1 versus AP1) to maize tissue cultured cells” value is given as about 100 fold. The “concentration at which growth of BMS cells was inhibited” value in data set [3] was 40000 nM. In addition, the “Injury of maize coleoptiles” value in data set [4] (1.5 mM) was “+”; in data set [4] (.0005 mM), “−”; in data set [4] (.0015 mM), “−”; in data set [4] (.005 mM) it was “−”; in data set [4] (.015 mM), “−”; in data set [4] (.05 mM), “−”. Besides, the “Injury of maize coleoptiles” value in data set [4] (.15 mM) and in data set [4] (.5 mM) was “−” in each case. The “difference in toxicity between FB1 and AP1 to maize coleoptiles” value in data set [4] (AP1 less toxic than FB1) is reported as at least 30 fold. The “AP1 less toxic (than FB1) in Lemna tissues” value in data set [5] is “approx. 40 fold”. In addition, the “reduction in toxicity to tomato by AP1 versus FB1” value in data set [6] is listed as about 100 fold. The “time to complete conversion to AP1-N1” value in data set [2] (pH 9) was found to be 30 min.
As for `CCCC[C@@H](C)[C@@H](OC(=O)C[C@@H](CC(=O)O)C(=O)O)[C@H](C[C@@H](C)C[C@H](O)CCCC[C@@H](O)C[C@H](O)[C@H](C)N)OC(=O)C[C@@H](CC(=O)O)C(=O)O` [FB1, Fumonisin B1], the “concentration at which growth of BMS cells was inhibited” value in data set [3] was determined as 400 nM. For the same compound, the “concentration giving significant inhibition of maize callus” value in data set [7] is 1400 nM. In addition, the “Injury of maize coleoptiles” value in data set [4] (1.5 mM) was “+”; in data set [4] (.0005 mM) it was “−”; in data set [4] (.0015 mM), “−”; in data set [4] (.005 mM) it was “−”; in data set [4] (.05 mM), “+”; in data set [4] (.15 mM) it was “+”. In addition, in data set [4] (.5 mM), the “Injury of maize coleoptiles” value is “+”. Moreover, the “modification” value in data set [2] is “not modified”.
With `O=S(=O)(F)Cc1ccccc1` [PMSF, Phenylmethyl sulfonyl fluoride], the “FB1 Hydrolase activity” value in data set [1] (treatment 10 mM) is listed as “+++”.
Consider “Cholinesterase, butyryl: EC 3.1.1.8, Horse serum, highly purified”, for which the FB1 hydrolysis result in data set [8] is “−”.
As for `O=C(O)CN(CCN(CC(=O)O)CC(=O)O)CC(=O)O` [EDTA], in data set [1] (treatment 50 mM), the “FB1 Hydrolase activity” value is given as “++”.
For `CCCCCCCCCCCCC/C=C/[C@@H](O)[C@@H](N)CO` [Sphingosine], in data set [2], the “modification” value is on record as “apparently not modified”.
